Measured values taken from patent US5866775A, “Glyphosate-tolerant 5-enolpyruvyl-3-phosphoshikimate synthases” (Monsanto Company, priority 1990, dated 1999).

Columns and labels:
[1] = biological target: T1, pMON8252 encoded petunia EPSPS variant, glycine (101) to alanine and alanine (192) to threonine (Petunia hybrida, UniProt P11043, A264T/G173A); assay: EPSP synthase kinetic constants (appKm PEP, appKi glyphosate); assay type: biochemical
T1 construct: alanine 192 in the mature petunia EPSP synthase; made in house; host or cells: E. coli SR481 (aroA-)
Protocol: The balance of the #742 preculture (~750 μl) was used to inoculate 2 ml of 2XYT medium containing 50 μg/ml carbenicillin and was shaken overnight at 37° C. to reach saturation. Plasmid DNA was isolated from an aliquot of the saturated culture using an alkaline lysis procedure. The plasmid was designated pMON8252. An aliquot of the pMON8252 plasmid was used to transform the E. coli host SR481 (described above) and reselected on MOPS medium containing 10 mM glyphosate and 50 μg/ml carbenicillin. A single glyphosate resistant colony of pMON8252 was picked off the selection plate and used to inoculate 3 ml of 2XY1 bacterial medium containing 50 μg/ml carbenicillin. The culture was then aerated on a rotating wheel at 37° C. until saturated and then used to inoculate a larger 250 ml culture. The large culture was grown to saturation by continuously shaking it overnight at 37° C. in a water bath. The bacterial cells were lysed and the extracts were assayed for EPSPS activity.
Specifically, the bacterial cell paste was washed twice with 0.9% saline, suspended in buffer (100 mM Tris-HCl, 5 mM benzamidine HCl) and passed twice through a French Pressure Cell at 1000 psi. The cell extract was separated from the cells by centrifuging at 15,000×gravity for 10 minutes at 5° C. It was desalted using Sephadex G-50 (Pharmacia, Piscataway, N.J.). The desalted extract was assayed for EPSP synthase activity as follows.
Kinetic constants (appKm PEP and appKi glyphosate) were determined for EPSP synthase as described below. Substrate kinetic parameters were determined at pH 7.9 in 50 mM HEPES (N-[2-hydroxyethyl]piperazine-N'-[2-ethanesulfonic acid]) buffer in the presence of 2 mM S3P and varying amounts of ^14 C-PEP (10 μM-400 μM), for 2.0 minutes at 25° C. Reactions were quenched with 100 mM NaAcetate in ethanol, pH 4.5, centrifuged and analyzed for product EPSP formation by HPLC with flow radioactivity detection. HPLC conditions were 0.35M KPi, pH 6.5, on a Synchropak AX100 column at 1.0 ml/minute.

[2] = tested on: bacteria harboring pMON342 or pMON9566; assay: Glyphosate tolerance of bacteria expressing petunia EPSPS from the double pL promoter; assay type: cell-based, E. coli; conditions: either plasmid
Protocol: The double pL promoter used to express the petunia EPSP synthase in pMON342 and pMON9566 leads to a very high level of expression of the enzyme. The enzyme is present at such high concentration that bacteria harboring either of these plasmids are tolerant to very high levels of glyphosate (>5 mM) in growth media, even though the enzyme produced by pMON342 is the wild type form. […] A plasmid for identifying such a promoter was constructed as follows: pMON9544, the precursor to pMON342, was digested with BamHI to remove the pL promoters, and was recircularized by ligation resulting in pMON362. The EcoRI fragment of pMON9556 containing the 3'portion of the petunia EPSPS cDNA was then inserted into the EcoRI site of this plasmid reconstituting the entire coding sequence. The resulting plasmid, pMON364 is identical to pMON342 except that there is no promoter 5' of the EPSP synthase coding sequence.

[3] = tested on: non-transformed canola plants; assay: Glyphosate spray of canola, non-transformed controls; assay type: in vivo; conditions: 0.56 kg/ha spray
From the text: A total of 15 transgenic canola plants containing the pMON10074 construct, and 2 non-transformed controls were sprayed with glyphosate at a commercial rate of 0.56 kg/ha. The effect of glyphosate on both the vegetative and reproductive performance of the sprayed plants was scored at 7, 14 and 28 days after spray. The effect of glyphosate was translated to a numerical scale of 0-10, where 0 represents total kill and 10 represents the normal, unsprayed plant. The non-transformed controls had vegetative scores of 2 after 14 days and reproductive scores of 0 after 28 days.

[4] = tested on: petunia leaf disks transformed with control vector pMON505; assay: Leaf disk callus growth on glyphosate medium, control disks; assay type: cell-based; conditions: within 10 days
Protocol: Leaf disks with diameters of 6 mm (1/4 inch) were taken from surface-sterilized petunia leaves. They were cultured on MS104 agar medium for 2 days to promote partial cell wall formation at the wound surfaces. They were then submerged in a culture of A. tumefaciens cells containing both pMON546 and GV3111-SE which had grown overnight in Luria broth at 28° C., and shaken gently. The leaf disks were removed from the bacterial suspension, blotted dry, and incubated upside down on filter paper placed over "nurse" cultures of tobacco cells, as described by Horsch (1980). After 2 or 3 days, the disks were transferred to petri dishes containing MS media with 500 μg/ml carbenicillin and 0. 0.1, 0.25, or 0.5 mM glyphosate (sodium salt), with no nurse cultures.
Control tissue was created using A. tumefaciens cells containing the helper plasmid pGV3111-SE and a different plant transformation vector, pMON505, which contained a T-DNA region with a NOS/NPTII/NOS kanamycin resistance gene and a NOS selectable marker gene identical to pMON546, but without the CaMV35S/EPSP synthase gene.

[5] = tested on: tobacco, sugarbeet, tomato, soybean and cotton plants transformed with the variant EPSPS gene; assay: Glyphosate tolerance of other transformed plant species; conditions: in vivo
From the text: A gene encoding the variant EPSPS enzyme of the present invention having a glycine to alanine substitution at position 101 and an alanine to threonine substitution at position 192 of the mature EPSPS enzyme has also been introduced into other plant species such as tobacco, sugarbeet, tomato, soybean and cotton. […] In particular, the glycine to alanine and alanine to threonine substitutions of the present invention have been introduced into a genomic clone of the Arabidopsis EPSPS gene and this gene introduced into canola and tobacco plants using suitable plant transformation vectors.

[6] = biological target: T2, EPSPS in crude extracts of tobacco plants transformed with pMON10079 (Petunia hybrida, UniProt P11043, A264T/G173A); assay: EPSPS assay of crude plant extracts in the presence of glyphosate; assay type: biochemical; conditions: 1.0 mM glyphosate; eleven transformed plants
T2 construct: an alanine to threonine substitution at position 192 of the mature EPSPS enzyme has also been introduced into other plant species such as tobacco; expressed in transfected cells; host or cells: transgenic tobacco plants (pMON10079), crude plant extracts
From the text: Thus, the petunia EPSPS variant with the glycine to alanine substitution at position 101 and the alanine to threonine substitution at position 192 does confer glyphosate tolerance to transformed plants.

T1 sequence (P11043 73-516 G173A/A264T): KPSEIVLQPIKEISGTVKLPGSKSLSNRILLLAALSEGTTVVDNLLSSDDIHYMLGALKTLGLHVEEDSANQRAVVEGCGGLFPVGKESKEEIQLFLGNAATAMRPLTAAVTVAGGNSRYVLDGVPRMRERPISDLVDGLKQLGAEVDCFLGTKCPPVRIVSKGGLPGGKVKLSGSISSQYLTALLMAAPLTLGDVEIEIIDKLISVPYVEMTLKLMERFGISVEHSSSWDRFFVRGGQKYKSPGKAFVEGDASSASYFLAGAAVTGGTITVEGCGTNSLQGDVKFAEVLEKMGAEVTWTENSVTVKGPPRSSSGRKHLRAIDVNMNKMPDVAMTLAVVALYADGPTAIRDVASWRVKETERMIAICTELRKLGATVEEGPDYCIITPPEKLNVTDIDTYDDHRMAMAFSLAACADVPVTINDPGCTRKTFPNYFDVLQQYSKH
T2 sequence (P11043 73-516 G173A/A264T): as above

Compound: O=C(O)CNCP(=O)(O)O [glyphosate, N-phosphonomethylglycine]
- Ki /Km ratio ([1]; Ki glyphosate / Km PEP): 12.6
- Ki for glyphosate ([1]; versus PEP, extract of SR481 cells with pMON8252): 683 µM
- glyphosate level tolerated in growth media [2]: > 5 mM
- vegetative score (scale 0-10, 0 total kill, 10 normal unsprayed plant) ([3]; after 14 days): 2
- reproductive score (scale 0-10, 0 total kill, 10 normal unsprayed plant) ([3]; after 28 days): 0
- callus growth ([4]; 0.25 mM glyphosate (sodium salt)): very little growth of callus from control disks
- callus growth ([4]; 0.5 mM glyphosate (sodium salt)): no callus growth from the control disks
- glyphosate tolerance of transformed plants [5]: exhibited glyphosate tolerance
- glyphosate resistance of plant EPSPS [6]: all eleven exhibited glyphosate resistance
